From PubChem BioAssay AID248 (DTP/NCI, 2004)
Where “and” joins values, the source holds several entries; their conditions need not be identical. Identical values can stand only once. Toxic doses and inconclusive results are not listed. No stated cut-off is given here; in the data, active means T/C of 150% or more; inactive means T/C below 125%.

System: L1210 leukemia ip in BDF1 mice, survival T/C
Assay: NCI In Vivo Anticancer Drug Screen. Data for tumor model L1210 Leukemia (intraperitoneal) in B6D2F1 (BDF1) mice
Settings: endpoint: mean survival time, higher = longer survival
Procedure, shortened: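 Tumor cells were implanted, animals were treated, and survival was followed. The result divides the treated measurement by the vehicle-control measurement.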

[1] = dose: 100.0 mg/kg/injection, schedule: Q01DX001 (ip), vehicle: Klucel (hydroxypropylcellulose) (HPC)
[2] = dose: 200.0 mg/kg/injection, schedule: Q01DX001 (ip), vehicle: Klucel (hydroxypropylcellulose) (HPC)
[3] = dose: 25.0 mg/kg/injection, schedule: Q04DX003 (ip), vehicle: Klucel (hydroxypropylcellulose) (HPC)
[4] = dose: 50.0 mg/kg/injection, schedule: Q04DX003 (ip), vehicle: Klucel (hydroxypropylcellulose) (HPC)
[5] = dose: 100.0 mg/kg/injection, schedule: Q04DX003 (ip), vehicle: Klucel (hydroxypropylcellulose) (HPC)
[6] = dose: 200.0 mg/kg/injection, schedule: Q04DX003 (ip), vehicle: Klucel (hydroxypropylcellulose) (HPC)
[7] = dose: 100.0 mg/kg/injection, schedule: Q01DX001 (ip), vehicle: saline
[8] = dose: 200.0 mg/kg/injection, schedule: Q01DX001 (ip), vehicle: saline
[9] = dose: 400.0 mg/kg/injection, schedule: Q01DX001 (ip), vehicle: saline
[10] = dose: 100.0 mg/kg/injection, schedule: Q01DX009 (ip), vehicle: saline
[11] = dose: 100.0 mg/kg/injection, schedule: Q04DX003 (ip), vehicle: saline
[12] = dose: 200.0 mg/kg/injection, schedule: Q01DX009 (ip), vehicle: saline
[13] = dose: 200.0 mg/kg/injection, schedule: Q04DX003 (ip), vehicle: saline
[14] = dose: 400.0 mg/kg/injection, schedule: Q01DX009 (ip), vehicle: saline
[15] = dose: 400.0 mg/kg/injection, schedule: Q04DX003 (ip), vehicle: saline
[16] = dose: 100.0 mg/kg/injection, schedule: Q01DX009 (ip), vehicle: Klucel (hydroxypropylcellulose) (HPC)
[17] = dose: 200.0 mg/kg/injection, schedule: Q01DX009 (ip), vehicle: Klucel (hydroxypropylcellulose) (HPC)
[18] = dose: 400.0 mg/kg/injection, schedule: Q01DX009 (ip), vehicle: Klucel (hydroxypropylcellulose) (HPC)
[19] = dose: 50.0 mg/kg/injection, schedule: Q01DX009 (ip), vehicle: Klucel (hydroxypropylcellulose) (HPC)
[20] = dose: 100.0 mg/kg/injection, schedule: Q04DX002 (ip), vehicle: Klucel (hydroxypropylcellulose) (HPC)
[21] = dose: 200.0 mg/kg/injection, schedule: Q04DX002 (ip), vehicle: Klucel (hydroxypropylcellulose) (HPC)
[22] = dose: 100.0 mg/kg/injection, schedule: Q01DX005 (ip), vehicle: saline
[23] = dose: 200.0 mg/kg/injection, schedule: Q01DX005 (ip), vehicle: saline
[24] = dose: 100.0 mg/kg/injection, schedule: Q04DX002 (ip), vehicle: saline with Tween-80
[25] = dose: 200.0 mg/kg/injection, schedule: Q04DX002 (ip), vehicle: saline with Tween-80
[26] = dose: 25.0 mg/kg/injection, schedule: Q01DX009 (ip), vehicle: Klucel (hydroxypropylcellulose) (HPC)

Measured: T/C

CCCCCCCCCCCCCCCCCC(=O)CCCCCCCCCCCCCCCCC
inactive: [1] 88 % of control | [2] 96 % of control | dose: 400.0 mg/kg/injection, schedule: Q01DX001 (ip), vehicle: Klucel (hydroxypropylcellulose) (HPC) 91 % of control

Clc1cc(C(Cl)(Cl)Cl)c(Cl)cc1C(Cl)(Cl)Cl
inactive: [3] 93 % of control | [4] 104 % of control | dose: 100.0 mg/kg/injection, schedule: Q01DX009 (ip), vehicle: saline sonified 120 % of control | [5] 97 % of control | dose: 200.0 mg/kg/injection, schedule: Q01DX009 (ip), vehicle: saline sonified 104 % of control | [6] 94 % of control | dose: 400.0 mg/kg/injection, schedule: Q01DX009 (ip), vehicle: saline sonified 94 % of control | dose: 400.0 mg/kg/injection, schedule: Q04DX003 (ip), vehicle: Klucel (hydroxypropylcellulose) (HPC) 94 % of control

Cc1c(C)c(C)c(Br)c(C)c1C
inactive: dose: 50.0 mg/kg/injection, schedule: Q01DX001 (ip), vehicle: saline 108 % of control | [7] 108 % of control | [8] 108 % of control | [9] 108 % of control

ClC(c1ccccc1)(c1ccccc1)c1ccccc1
inactive: dose: 50.0 mg/kg/injection, schedule: Q01DX001 (ip), vehicle: other 96 % of control | dose: 100.0 mg/kg/injection, schedule: Q01DX001 (ip), vehicle: other 102 % of control | [10] 87 % of control | [11] 90 % of control | dose: 200.0 mg/kg/injection, schedule: Q01DX001 (ip), vehicle: other 106 % of control | [12] 94 % of control | [13] 93 % of control | dose: 400.0 mg/kg/injection, schedule: Q01DX001 (ip), vehicle: other 100 % of control | [14] 90 % of control | [15] 88 % of control

Clc1cc(I)cc(Cl)c1Cl
inactive: dose: 100.0 mg/kg/injection, schedule: Q04DX003 (ip), vehicle: acetone 108 % of control | dose: 200.0 mg/kg/injection, schedule: Q04DX003 (ip), vehicle: acetone 103 % of control | dose: 400.0 mg/kg/injection, schedule: Q04DX003 (ip), vehicle: acetone 91 % of control

O=C(O)c1cccc(Cl)c1
inactive: [16] 100 % of control | [17] 100 % of control | [18] 86 % of control

CCCCN1C(=O)C2CCC34C5C(=O)N(CCCC)C(=O)C5C5C=CC3(C2C1=O)C1C(=O)N(CCCC)C(=O)C1N54 (centres undefined)
inactive: [19] 99 % of control | [16] 99 % of control | [17] 97 % of control | [18] 97 % of control

O=C(Nc1cccc2ccccc12)Oc1ccc(Cl)cc1Cc1ccccc1
inactive: dose: 12.5 mg/kg/injection, schedule: Q04DX002 (ip), vehicle: Klucel (hydroxypropylcellulose) (HPC) 123 % of control | dose: 25.0 mg/kg/injection, schedule: Q04DX002 (ip), vehicle: Klucel (hydroxypropylcellulose) (HPC) 105 % of control | dose: 50.0 mg/kg/injection, schedule: Q04DX002 (ip), vehicle: Klucel (hydroxypropylcellulose) (HPC) 94 % of control | [20] 92 % of control | [21] 89 % of control

CS(=O)(=O)Nc1nc2ccccc2[nH]1
inactive: dose: 50.0 mg/kg/injection, schedule: Q01DX009 (ip), vehicle: saline 96 % of control | [10] 93 % of control | [12] 86 % of control

O=c1[nH]nnc2ncn(C3OC(CO)C(O)C3O)c12 (centres undefined)
inactive: [22] 91 % of control | [23] 87 % of control

NC(CCl)=NC1CC1
inactive: dose: 25.0 mg/kg/injection, schedule: Q04DX002 (ip), vehicle: saline 106 % of control | dose: 50.0 mg/kg/injection, schedule: Q04DX002 (ip), vehicle: saline 106 % of control | dose: 100.0 mg/kg/injection, schedule: Q04DX002 (ip), vehicle: saline 110 % of control

Cc1cccc(OC(=O)Nc2ccccc2C)c1
inactive: [20] 103 % of control | [21] 118 % of control | dose: 400.0 mg/kg/injection, schedule: Q04DX002 (ip), vehicle: Klucel (hydroxypropylcellulose) (HPC) 100 % of control

CSc1nc2c(N)ncnc2n1C1OC(CO)C(O)C1O (centres undefined)
inactive: [22] 98 % of control | [23] 101 % of control

CC(C)(C)C(Br)C(=O)Nc1ccccc1 (centres undefined)
inactive: [7] 104 % of control | [8] 102 % of control | [9] 102 % of control

CN(C)CCCOS(C)(=O)=O
inactive: [24] 105 % of control | [25] 99 % of control

COc1ccccc1-n1c(O)c(N=Nc2ccc(Cl)cc2)c(=O)n(-c2ccc(Br)cc2)c1=S
inactive: [1] 89 % of control | [2] 92 % of control

CCOC(=O)CCN(CC)C(C)=O
inactive: [10] 93 % of control | dose: 100.0 mg/kg/injection, schedule: Q04DX003 (ip), vehicle: saline sonified 101 % of control | [12] 93 % of control | dose: 200.0 mg/kg/injection, schedule: Q04DX003 (ip), vehicle: saline sonified 95 % of control | [14] 93 % of control | dose: 400.0 mg/kg/injection, schedule: Q04DX003 (ip), vehicle: saline sonified 95 % of control

O=C(Nc1ccccc1C(=O)NC1CCCC1)NC1CCCC1
inactive: [5] 89 % of control | [6] 94 % of control

O=C(NO)c1ccccn1
inactive: dose: 90.0 mg/kg/injection, schedule: Q01DX015 (ip), vehicle: water 97 % of control | dose: 130.0 mg/kg/injection, schedule: Q01DX015 (ip), vehicle: water 101 % of control | dose: 133.0 mg/kg/injection, schedule: Q01DX015 (ip), vehicle: water 97 % of control | dose: 200.0 mg/kg/injection, schedule: Q01DX015 (ip), vehicle: water 110 % of control

CCS/C(Cl)=C(\Cl)SCC
inactive: [26] 101 % of control | [19] 106 % of control | [16] 102 % of control and 109 % of control

CC#CC(O)(C(=O)OCC)C1CCCCC1 (centres undefined)
inactive: [7] 96 % of control | [8] 113 % of control | [9] 100 % of control

COc1ccccc1OCCOCCNC1CC2CCC1(C)C2(C)C (centres undefined)
inactive: [5] 88 % of control

CC(=O)c1cccc(N)c1
inactive: [16] 94 % of control | [11] 95 % of control | [17] 93 % of control | [13] 95 % of control | [18] 93 % of control | [15] 88 % of control

CCOCc1c(COc2ccc(Br)cc2)n(C)c2ccccc12
inactive: dose: 25.0 mg/kg/injection, schedule: Q01DX009 (ip), vehicle: saline with Tween-80 100 % of control | dose: 50.0 mg/kg/injection, schedule: Q01DX009 (ip), vehicle: saline with Tween-80 89 % of control and 90 % of control | dose: 100.0 mg/kg/injection, schedule: Q01DX009 (ip), vehicle: saline with Tween-80 90 % of control | dose: 200.0 mg/kg/injection, schedule: Q01DX009 (ip), vehicle: saline with Tween-80 99 % of control

Cc1cc(C)c(-c2c(O)c(Br)c(-c3c(C)cc(C)c(Br)c3C)c(O)c2Br)c(C)c1Br
inactive: dose: 12.5 mg/kg/injection, schedule: Q01DX009 (ip), vehicle: Klucel (hydroxypropylcellulose) (HPC) 100 % of control | dose: 12.5 mg/kg/injection, schedule: Q04DX003 (ip), vehicle: Klucel (hydroxypropylcellulose) (HPC) 100 % of control | [26] 103 % of control | [3] 97 % of control | [19] 94 % of control | [4] 102 % of control | dose: 75.0 mg/kg/injection, schedule: Q01DX009 (ip), vehicle: Klucel (hydroxypropylcellulose) (HPC) 120 % of control

C#CCN(C)C(=O)Nc1ccccc1
inactive: [24] 91 % of control | [25] 91 % of control | dose: 400.0 mg/kg/injection, schedule: Q04DX002 (ip), vehicle: saline with Tween-80 113 % of control
